What was measured:
[1] = biological target: T1, Alpha-2A adrenergic receptor (Homo sapiens) (UniProt P08913); assay: Alpha2A (h) Eurofins-Cerep binding assay; conditions: filed as antagonist, Compound concentration 10.0 uM
T1 sequence (whole entry): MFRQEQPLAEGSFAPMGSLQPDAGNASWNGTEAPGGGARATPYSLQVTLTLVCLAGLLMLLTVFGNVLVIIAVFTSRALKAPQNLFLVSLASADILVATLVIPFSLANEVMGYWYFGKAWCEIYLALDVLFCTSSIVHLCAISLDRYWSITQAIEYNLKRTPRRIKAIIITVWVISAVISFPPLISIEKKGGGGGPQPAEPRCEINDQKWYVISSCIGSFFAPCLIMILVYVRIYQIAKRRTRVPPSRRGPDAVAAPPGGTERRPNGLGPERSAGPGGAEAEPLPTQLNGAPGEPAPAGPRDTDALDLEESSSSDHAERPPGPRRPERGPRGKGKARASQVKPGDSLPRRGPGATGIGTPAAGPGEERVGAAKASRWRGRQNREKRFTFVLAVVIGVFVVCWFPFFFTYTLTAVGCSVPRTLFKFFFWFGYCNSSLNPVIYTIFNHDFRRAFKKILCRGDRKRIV

[2] = biological target: Tumor necrosis factor (Homo sapiens) (UniProt P01375); assay: TNF-alpha (h) Eurofins-Cerep binding assay; conditions: filed as agonist, Compound concentration 10.0 uM
[3] = tested on: Tyrosine-protein kinase ABL1 (Homo sapiens), P00519 [H396P]; conditions: Compound concentration 1000.0 nM
[4] = biological target: Activin receptor type-1B (Homo sapiens) (UniProt P36896); conditions: Compound concentration 1000.0 nM
[5] = biological target: RAC-gamma serine/threonine-protein kinase (Homo sapiens) (UniProt Q9Y243); conditions: Compound concentration 1000.0 nM
RAC-gamma serine/threonine-protein kinase (Homo sapiens), sequence (Q9Y243 whole entry): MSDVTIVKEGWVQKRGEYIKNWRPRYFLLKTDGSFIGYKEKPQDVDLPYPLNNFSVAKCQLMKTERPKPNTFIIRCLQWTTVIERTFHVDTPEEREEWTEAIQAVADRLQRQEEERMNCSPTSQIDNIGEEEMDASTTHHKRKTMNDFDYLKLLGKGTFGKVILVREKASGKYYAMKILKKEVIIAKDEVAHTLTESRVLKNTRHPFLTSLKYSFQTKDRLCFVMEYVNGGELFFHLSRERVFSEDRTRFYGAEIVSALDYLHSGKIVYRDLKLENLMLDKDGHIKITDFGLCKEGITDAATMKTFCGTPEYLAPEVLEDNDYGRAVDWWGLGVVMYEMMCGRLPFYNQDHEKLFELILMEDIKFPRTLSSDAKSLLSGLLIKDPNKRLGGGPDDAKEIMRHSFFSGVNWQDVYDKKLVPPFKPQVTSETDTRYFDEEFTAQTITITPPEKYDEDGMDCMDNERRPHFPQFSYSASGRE

[6] = biological target: Cytoplasmic tyrosine-protein kinase BMX (Homo sapiens) (UniProt P51813); conditions: Compound concentration 1000.0 nM
[7] = biological target: Calcium/calmodulin-dependent protein kinase type II subunit alpha (Homo sapiens) (UniProt Q9UQM7); conditions: Compound concentration 1000.0 nM
[8] = biological target: Calcium/calmodulin-dependent protein kinase type II subunit delta (Homo sapiens) (UniProt Q13557); conditions: Compound concentration 1000.0 nM
[9] = biological target: Cyclin-dependent kinase 3 (Homo sapiens) (UniProt Q00526); conditions: Compound concentration 1000.0 nM
Cyclin-dependent kinase 3 (Homo sapiens), sequence (Q00526 whole entry, looked up): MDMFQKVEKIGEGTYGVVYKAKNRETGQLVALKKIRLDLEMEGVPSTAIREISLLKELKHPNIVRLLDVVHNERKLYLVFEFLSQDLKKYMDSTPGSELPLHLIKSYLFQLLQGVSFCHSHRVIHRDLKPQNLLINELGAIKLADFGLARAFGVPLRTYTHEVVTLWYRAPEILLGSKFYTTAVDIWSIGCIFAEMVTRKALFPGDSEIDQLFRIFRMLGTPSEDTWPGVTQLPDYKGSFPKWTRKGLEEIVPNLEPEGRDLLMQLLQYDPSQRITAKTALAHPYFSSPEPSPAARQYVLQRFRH

[10] = biological target: Cyclin-dependent kinase-like 2 (Homo sapiens) (UniProt Q92772); conditions: Compound concentration 1000.0 nM
[11] = biological target: Serine/threonine-protein kinase DCLK2 (Homo sapiens) (UniProt Q8N568); conditions: Compound concentration 1000.0 nM
[12] = biological target: Ephrin type-A receptor 5 (Homo sapiens) (UniProt P54756); conditions: Compound concentration 1000.0 nM
[13] = biological target: Ephrin type-B receptor 2 (Homo sapiens) (UniProt P29323); conditions: Compound concentration 1000.0 nM
[14] = biological target: Receptor tyrosine-protein kinase erbB-2 (Homo sapiens) (UniProt P04626); conditions: Compound concentration 1000.0 nM
[15] = biological target: Tyrosine-protein kinase Fgr (Homo sapiens) (UniProt P09769); conditions: Compound concentration 1000.0 nM
[16] = biological target: Vascular endothelial growth factor receptor 3 (Homo sapiens) (UniProt P35916); conditions: Compound concentration 1000.0 nM
Vascular endothelial growth factor receptor 3 (Homo sapiens), sequence (P35916 whole entry): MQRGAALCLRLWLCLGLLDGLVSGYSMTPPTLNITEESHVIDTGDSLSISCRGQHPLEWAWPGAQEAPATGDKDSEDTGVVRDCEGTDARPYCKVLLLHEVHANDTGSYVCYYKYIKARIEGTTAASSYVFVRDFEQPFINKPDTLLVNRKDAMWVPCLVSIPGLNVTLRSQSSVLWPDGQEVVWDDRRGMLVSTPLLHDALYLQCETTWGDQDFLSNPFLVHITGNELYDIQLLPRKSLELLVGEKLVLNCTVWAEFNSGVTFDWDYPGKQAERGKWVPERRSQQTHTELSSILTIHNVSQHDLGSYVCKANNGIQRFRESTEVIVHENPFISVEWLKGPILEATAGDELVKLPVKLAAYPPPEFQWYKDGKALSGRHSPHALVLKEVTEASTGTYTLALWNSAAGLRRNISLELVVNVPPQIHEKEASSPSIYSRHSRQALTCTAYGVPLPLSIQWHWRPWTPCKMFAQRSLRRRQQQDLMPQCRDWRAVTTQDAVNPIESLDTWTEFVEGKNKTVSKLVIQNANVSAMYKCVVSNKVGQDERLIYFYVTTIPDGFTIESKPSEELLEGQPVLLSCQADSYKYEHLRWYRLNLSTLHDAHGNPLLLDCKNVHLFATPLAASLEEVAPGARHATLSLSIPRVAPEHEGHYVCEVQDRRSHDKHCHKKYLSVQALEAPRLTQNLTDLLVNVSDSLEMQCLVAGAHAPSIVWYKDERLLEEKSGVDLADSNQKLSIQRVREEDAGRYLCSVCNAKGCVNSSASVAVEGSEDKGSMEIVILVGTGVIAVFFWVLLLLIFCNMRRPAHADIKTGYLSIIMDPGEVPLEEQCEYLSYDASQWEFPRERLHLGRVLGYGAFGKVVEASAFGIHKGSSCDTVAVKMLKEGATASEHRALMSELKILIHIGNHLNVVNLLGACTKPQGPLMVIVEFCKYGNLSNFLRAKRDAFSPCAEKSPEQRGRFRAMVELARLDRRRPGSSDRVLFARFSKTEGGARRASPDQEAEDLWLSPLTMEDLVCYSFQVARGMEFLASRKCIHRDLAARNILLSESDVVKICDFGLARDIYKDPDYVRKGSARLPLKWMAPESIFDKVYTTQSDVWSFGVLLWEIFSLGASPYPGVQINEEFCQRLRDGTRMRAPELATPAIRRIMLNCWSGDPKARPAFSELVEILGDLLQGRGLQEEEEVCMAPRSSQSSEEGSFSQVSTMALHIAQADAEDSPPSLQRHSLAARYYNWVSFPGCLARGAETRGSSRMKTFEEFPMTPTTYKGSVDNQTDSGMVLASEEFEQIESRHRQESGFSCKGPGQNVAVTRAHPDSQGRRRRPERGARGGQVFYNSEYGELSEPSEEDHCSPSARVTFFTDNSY

[17] = biological target: Tyrosine-protein kinase HCK (Homo sapiens) (UniProt P08631); conditions: Compound concentration 1000.0 nM
[18] = biological target: Homeodomain-interacting protein kinase 2 (Homo sapiens) (UniProt Q9H2X6); conditions: Compound concentration 1000.0 nM
Homeodomain-interacting protein kinase 2 (Homo sapiens), sequence (Q9H2X6 whole entry, looked up): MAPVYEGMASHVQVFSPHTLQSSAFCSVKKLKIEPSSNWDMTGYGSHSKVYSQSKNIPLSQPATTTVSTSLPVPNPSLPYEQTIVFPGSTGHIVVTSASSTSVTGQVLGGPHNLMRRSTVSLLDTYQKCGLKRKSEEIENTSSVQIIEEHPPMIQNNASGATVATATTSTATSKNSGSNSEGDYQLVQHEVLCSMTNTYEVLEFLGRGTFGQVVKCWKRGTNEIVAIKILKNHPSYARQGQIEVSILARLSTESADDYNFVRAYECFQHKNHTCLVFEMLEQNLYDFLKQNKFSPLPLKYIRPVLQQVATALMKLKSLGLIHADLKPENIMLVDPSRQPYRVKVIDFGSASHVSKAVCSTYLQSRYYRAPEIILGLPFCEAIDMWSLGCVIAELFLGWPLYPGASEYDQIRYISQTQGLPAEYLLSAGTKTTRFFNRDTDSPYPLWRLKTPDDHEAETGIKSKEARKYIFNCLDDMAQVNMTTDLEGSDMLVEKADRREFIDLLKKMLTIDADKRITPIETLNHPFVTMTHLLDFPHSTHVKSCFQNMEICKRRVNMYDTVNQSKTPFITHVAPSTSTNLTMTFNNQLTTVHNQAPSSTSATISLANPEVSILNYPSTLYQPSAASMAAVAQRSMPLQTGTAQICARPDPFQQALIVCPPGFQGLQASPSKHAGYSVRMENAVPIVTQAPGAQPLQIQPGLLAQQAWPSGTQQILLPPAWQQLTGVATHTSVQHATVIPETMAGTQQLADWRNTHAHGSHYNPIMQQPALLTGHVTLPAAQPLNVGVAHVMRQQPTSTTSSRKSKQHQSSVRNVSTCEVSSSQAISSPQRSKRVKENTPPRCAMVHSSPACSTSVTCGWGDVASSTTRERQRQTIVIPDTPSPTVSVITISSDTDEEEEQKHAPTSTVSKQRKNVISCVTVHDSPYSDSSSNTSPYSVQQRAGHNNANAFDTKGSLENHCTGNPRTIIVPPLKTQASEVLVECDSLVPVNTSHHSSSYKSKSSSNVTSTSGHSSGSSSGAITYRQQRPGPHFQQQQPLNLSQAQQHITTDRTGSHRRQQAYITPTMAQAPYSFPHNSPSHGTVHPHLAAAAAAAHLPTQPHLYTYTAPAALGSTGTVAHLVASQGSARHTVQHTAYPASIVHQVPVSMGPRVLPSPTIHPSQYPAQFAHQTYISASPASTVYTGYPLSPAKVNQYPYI

[19] = biological target: Inhibitor of nuclear factor kappa-B kinase subunit beta (Homo sapiens) (UniProt O14920); conditions: Compound concentration 1000.0 nM
[20] = biological target: Mitogen-activated protein kinase kinase kinase 13 (Homo sapiens) (UniProt O43283); conditions: Compound concentration 1000.0 nM
[21] = biological target: Mitogen-activated protein kinase kinase kinase 1 (Homo sapiens) (UniProt Q13233); conditions: Compound concentration 1000.0 nM
[22] = biological target: Mitogen-activated protein kinase kinase kinase 9 (Homo sapiens) (UniProt P80192); conditions: Compound concentration 1000.0 nM
[23] = biological target: Serine/threonine-protein kinase 26 (Homo sapiens) (UniProt Q9P289); conditions: Compound concentration 1000.0 nM
[24] = biological target: Myosin light chain kinase, smooth muscle (Homo sapiens) (UniProt Q15746); conditions: Compound concentration 1000.0 nM
[25] = biological target: Serine/threonine-protein kinase Nek11 (Homo sapiens) (UniProt Q8NG66); conditions: Compound concentration 1000.0 nM
[26] = biological target: Cyclin-dependent kinase 16 (Homo sapiens) (UniProt Q00536); conditions: Compound concentration 1000.0 nM
Cyclin-dependent kinase 16 (Homo sapiens), sequence (Q00536 whole entry, canonical isoform): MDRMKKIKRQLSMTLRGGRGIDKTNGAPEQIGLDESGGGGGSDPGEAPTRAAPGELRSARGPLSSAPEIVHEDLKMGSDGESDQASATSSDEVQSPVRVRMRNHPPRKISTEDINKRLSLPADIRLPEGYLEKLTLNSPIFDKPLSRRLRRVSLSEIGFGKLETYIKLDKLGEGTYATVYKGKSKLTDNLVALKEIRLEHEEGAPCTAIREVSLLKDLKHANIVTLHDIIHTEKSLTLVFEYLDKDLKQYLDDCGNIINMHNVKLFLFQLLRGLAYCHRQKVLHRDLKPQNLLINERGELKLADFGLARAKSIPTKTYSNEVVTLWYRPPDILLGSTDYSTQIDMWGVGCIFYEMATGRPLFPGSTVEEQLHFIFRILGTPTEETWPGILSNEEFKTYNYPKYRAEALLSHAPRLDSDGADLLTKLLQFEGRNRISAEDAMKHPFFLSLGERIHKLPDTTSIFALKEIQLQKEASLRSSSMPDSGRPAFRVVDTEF

[27] = tested on: Phosphatidylinositol 4,5-bisphosphate 3-kinase catalytic subunit alpha isoform (Homo sapiens), P42336 [E545K]; conditions: Compound concentration 1000.0 nM
[28] = biological target: Serine/threonine-protein kinase pim-1 (Homo sapiens) (UniProt P11309); conditions: Compound concentration 1000.0 nM
[29] = biological target: Serine/threonine-protein kinase N1 (Homo sapiens) (UniProt Q16512); conditions: Compound concentration 1000.0 nM
[30] = biological target: Protein kinase C delta type (Homo sapiens) (UniProt Q05655); conditions: Compound concentration 1000.0 nM
[31] = biological target: Serine/threonine-protein kinase D2 (Homo sapiens) (UniProt Q9BZL6); conditions: Compound concentration 1000.0 nM
[32] = tested on: Proto-oncogene tyrosine-protein kinase receptor Ret (Homo sapiens), P07949 [M918T]; conditions: Compound concentration 1000.0 nM
[33] = biological target: Serine/threonine-protein kinase RIO1 (Homo sapiens) (UniProt Q9BRS2); conditions: Compound concentration 1000.0 nM
Serine/threonine-protein kinase RIO1 (Homo sapiens), sequence (Q9BRS2 whole entry): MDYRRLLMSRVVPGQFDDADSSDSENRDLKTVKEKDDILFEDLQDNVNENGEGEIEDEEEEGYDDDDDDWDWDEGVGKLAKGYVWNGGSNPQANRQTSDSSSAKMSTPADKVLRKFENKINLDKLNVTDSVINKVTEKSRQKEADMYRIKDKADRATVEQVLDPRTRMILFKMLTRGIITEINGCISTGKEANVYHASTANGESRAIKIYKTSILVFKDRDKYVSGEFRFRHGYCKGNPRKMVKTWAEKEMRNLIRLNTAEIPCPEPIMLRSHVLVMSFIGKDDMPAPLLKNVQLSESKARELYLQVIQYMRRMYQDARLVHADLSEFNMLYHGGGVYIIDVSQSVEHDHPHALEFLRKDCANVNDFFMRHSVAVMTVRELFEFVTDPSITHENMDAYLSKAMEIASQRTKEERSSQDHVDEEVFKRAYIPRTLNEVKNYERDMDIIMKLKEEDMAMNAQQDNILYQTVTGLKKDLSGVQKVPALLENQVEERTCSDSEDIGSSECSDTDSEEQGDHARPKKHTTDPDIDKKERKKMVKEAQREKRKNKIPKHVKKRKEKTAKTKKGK

[34] = biological target: Ribosomal protein S6 kinase alpha-1 (Homo sapiens) (UniProt Q15418); conditions: Compound concentration 1000.0 nM
[35] = biological target: NUAK family SNF1-like kinase 2 (Homo sapiens) (UniProt Q9H093); conditions: Compound concentration 1000.0 nM
[36] = biological target: Serine/threonine-protein kinase 33 (Homo sapiens) (UniProt Q9BYT3); conditions: Compound concentration 1000.0 nM
Serine/threonine-protein kinase 33 (Homo sapiens), sequence (Q9BYT3 whole entry, looked up): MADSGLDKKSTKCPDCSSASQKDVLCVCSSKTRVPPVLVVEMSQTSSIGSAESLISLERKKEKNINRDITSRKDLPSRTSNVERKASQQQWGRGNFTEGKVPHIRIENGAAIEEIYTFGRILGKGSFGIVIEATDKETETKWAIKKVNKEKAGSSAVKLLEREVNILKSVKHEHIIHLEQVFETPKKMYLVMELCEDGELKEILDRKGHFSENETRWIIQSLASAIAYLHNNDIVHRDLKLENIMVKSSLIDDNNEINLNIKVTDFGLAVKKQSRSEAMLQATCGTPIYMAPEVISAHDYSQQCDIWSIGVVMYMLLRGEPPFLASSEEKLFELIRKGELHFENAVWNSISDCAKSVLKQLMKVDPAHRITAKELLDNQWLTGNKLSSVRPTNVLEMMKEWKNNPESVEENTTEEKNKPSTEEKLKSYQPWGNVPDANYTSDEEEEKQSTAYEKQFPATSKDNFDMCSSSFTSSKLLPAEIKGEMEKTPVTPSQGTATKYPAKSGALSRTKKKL

[37] = biological target: STE20/SPS1-related proline-alanine-rich protein kinase (Homo sapiens) (UniProt Q9UEW8); conditions: Compound concentration 1000.0 nM
[38] = biological target: Non-receptor tyrosine-protein kinase TYK2 (Homo sapiens) (UniProt P29597); conditions: Compound concentration 1000.0 nM

CCCOc1ccc([C@H]2[C@H](C(=O)O)[C@@H](c3ccc4c(c3)OCO4)CN2CC(=O)Nc2c(CC)cccc2CC)cc1 [A-192621]
% Inhibition of Control Specific Binding [1]: -2.4%
% Inhibition of Control Specific Binding (Mean n=2) [2]: 3.4%
residual activity [3]: 81%
residual activity [4]: 99%
residual activity [5]: 82%
residual activity [6]: 100%
residual activity [7]: 90%
residual activity [8]: 93%
residual activity [9]: 95%
residual activity [10]: 84%
residual activity [11]: 77%
residual activity [12]: 100%
residual activity [13]: 100%
residual activity [14]: 79%
residual activity [15]: 98%
residual activity [16]: 90%
residual activity [17]: 92%
residual activity [18]: 66%
residual activity [19]: 77%
residual activity [20]: 47%
residual activity [21]: 71%
residual activity [22]: 93%
residual activity [23]: 74%
residual activity [24]: 85%
residual activity [25]: 59%
residual activity [26]: 77%
residual activity [27]: 61%
residual activity [28]: 85%
residual activity [29]: 87%
residual activity [30]: 100%
residual activity [31]: 84%
residual activity [32]: 84%
residual activity [33]: 86%
residual activity [34]: 74%
residual activity [35]: 57%
residual activity [36]: 65%
residual activity [37]: 58%
residual activity [38]: 80%

CCCOc1ccc([C@@H]2[C@@H](C(=O)O)[C@H](c3ccc4c(c3)OCO4)CN2CC(=O)Nc2c(CC)cccc2CC)cc1 [A-1806262]
% Inhibition of Control Specific Binding (Mean n=2) [1]: -7.1%
% Inhibition of Control Specific Binding (Mean n=2) [2]: 1.2%
residual activity [3]: 90%
residual activity [4]: 90%
residual activity [5]: 100%
residual activity [6]: 100%
residual activity [7]: 100%
residual activity [8]: 88%
residual activity [9]: 100%
residual activity [10]: 96%
residual activity [11]: 85%
residual activity [12]: 100%
residual activity [13]: 100%
residual activity [14]: 80%
residual activity [15]: 93%
residual activity [16]: 100%
residual activity [17]: 92%
residual activity [18]: 80%
residual activity [19]: 94%
residual activity [20]: 75%
residual activity [21]: 80%
residual activity [22]: 93%
residual activity [23]: 81%
residual activity [24]: 100%
residual activity [25]: 81%
residual activity [26]: 89%
residual activity [27]: 68%
residual activity [28]: 89%
residual activity [29]: 100%
residual activity [30]: 100%
residual activity [31]: 100%
residual activity [32]: 97%
residual activity [33]: 100%
residual activity [34]: 77%
residual activity [35]: 73%
residual activity [36]: 69%
residual activity [37]: 78%
residual activity [38]: 81%

Source: ChEMBL document CHEMBL4507261, “Data for DCP probe A-192621” (2021)
